Columns and labels:
[1] = biological target: T1, Ephrin type-A receptor 1 (Homo sapiens) (UniProt P21709); assay: Selectivity interaction (KinomeScan (DiscoverX)) EUB0001619a EPHA1; details: at 1 µM
T1 sequence (whole entry): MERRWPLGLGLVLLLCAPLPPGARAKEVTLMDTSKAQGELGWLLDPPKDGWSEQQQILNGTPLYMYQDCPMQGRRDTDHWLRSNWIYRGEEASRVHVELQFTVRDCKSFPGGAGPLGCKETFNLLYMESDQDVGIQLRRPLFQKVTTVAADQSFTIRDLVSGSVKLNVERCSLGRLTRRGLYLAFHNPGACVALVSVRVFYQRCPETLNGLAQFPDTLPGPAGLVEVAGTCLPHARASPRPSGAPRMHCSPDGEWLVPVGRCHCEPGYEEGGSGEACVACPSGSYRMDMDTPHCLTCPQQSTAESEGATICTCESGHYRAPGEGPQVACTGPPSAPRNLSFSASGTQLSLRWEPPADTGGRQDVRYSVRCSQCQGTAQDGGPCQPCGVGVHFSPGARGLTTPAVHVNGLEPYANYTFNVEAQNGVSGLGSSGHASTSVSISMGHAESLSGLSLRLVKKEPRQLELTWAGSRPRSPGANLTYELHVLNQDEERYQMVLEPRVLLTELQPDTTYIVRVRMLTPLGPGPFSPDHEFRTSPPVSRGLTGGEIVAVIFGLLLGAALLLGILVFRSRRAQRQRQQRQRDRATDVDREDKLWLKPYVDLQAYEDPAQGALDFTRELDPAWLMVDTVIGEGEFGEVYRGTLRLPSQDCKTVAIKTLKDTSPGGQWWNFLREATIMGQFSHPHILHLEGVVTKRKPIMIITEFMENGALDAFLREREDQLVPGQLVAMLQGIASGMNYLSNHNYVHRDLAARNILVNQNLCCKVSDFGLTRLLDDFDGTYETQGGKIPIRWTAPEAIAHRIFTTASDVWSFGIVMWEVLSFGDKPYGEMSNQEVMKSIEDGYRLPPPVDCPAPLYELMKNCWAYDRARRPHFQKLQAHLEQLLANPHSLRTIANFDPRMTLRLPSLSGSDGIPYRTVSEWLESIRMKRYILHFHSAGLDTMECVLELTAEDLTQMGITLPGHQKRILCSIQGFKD

[2] = biological target: Vascular endothelial growth factor receptor 2 (Homo sapiens, UniProt P35968); assay: Selectivity interaction (KinomeScan (DiscoverX)) EUB0000595a KDR; details: at 10 µM
[3] = biological target: BMP-2-inducible protein kinase (Homo sapiens) (UniProt Q9NSY1); details: at 10 µM
[4] = biological target: Protein polybromo-1 (Homo sapiens) (UniProt Q86U86); assay: Selectivity interaction (Bromodomain panel (DSF asssay)) EUB0000270b PBRM1
[5] = biological target: T2, Serine/threonine-protein kinase haspin (Homo sapiens) (UniProt Q8TF76); assay: Selectivity interaction (KinomeScan (DiscoverX)) EUB0001049a GSG2; details: at 1 µM
T2 sequence (whole entry): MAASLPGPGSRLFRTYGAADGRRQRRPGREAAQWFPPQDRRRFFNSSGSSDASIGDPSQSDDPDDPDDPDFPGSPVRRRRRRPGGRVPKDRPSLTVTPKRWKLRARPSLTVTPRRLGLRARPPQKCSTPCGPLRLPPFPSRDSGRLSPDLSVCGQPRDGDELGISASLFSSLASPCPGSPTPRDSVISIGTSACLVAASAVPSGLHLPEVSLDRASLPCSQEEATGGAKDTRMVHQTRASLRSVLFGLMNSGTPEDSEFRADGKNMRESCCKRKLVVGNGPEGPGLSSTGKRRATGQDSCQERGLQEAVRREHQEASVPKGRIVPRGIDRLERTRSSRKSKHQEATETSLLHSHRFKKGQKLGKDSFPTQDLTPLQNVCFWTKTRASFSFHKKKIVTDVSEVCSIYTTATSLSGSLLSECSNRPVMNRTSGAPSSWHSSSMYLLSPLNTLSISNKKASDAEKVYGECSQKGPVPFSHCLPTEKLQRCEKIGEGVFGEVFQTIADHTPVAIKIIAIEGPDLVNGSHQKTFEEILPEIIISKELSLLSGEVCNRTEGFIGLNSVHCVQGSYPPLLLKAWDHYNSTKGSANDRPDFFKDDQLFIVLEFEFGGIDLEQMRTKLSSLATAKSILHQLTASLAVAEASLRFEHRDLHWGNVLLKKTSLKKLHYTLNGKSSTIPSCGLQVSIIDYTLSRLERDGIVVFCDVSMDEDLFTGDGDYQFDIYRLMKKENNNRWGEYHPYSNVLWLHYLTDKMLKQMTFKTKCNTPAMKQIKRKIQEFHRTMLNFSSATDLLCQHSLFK

[6] = biological target: Tyrosine-protein kinase HCK (Homo sapiens) (UniProt P08631); assay: Selectivity interaction (KinomeScan (DiscoverX)) EUB0001049a HCK; details: at 1 µM
[7] = biological target: T3, Megakaryocyte-associated tyrosine-protein kinase (Homo sapiens) (UniProt P42679); assay: Selectivity interaction (KinomeScan (DiscoverX)) EUB0001049a MATK; details: at 1 µM
T3 sequence (whole entry): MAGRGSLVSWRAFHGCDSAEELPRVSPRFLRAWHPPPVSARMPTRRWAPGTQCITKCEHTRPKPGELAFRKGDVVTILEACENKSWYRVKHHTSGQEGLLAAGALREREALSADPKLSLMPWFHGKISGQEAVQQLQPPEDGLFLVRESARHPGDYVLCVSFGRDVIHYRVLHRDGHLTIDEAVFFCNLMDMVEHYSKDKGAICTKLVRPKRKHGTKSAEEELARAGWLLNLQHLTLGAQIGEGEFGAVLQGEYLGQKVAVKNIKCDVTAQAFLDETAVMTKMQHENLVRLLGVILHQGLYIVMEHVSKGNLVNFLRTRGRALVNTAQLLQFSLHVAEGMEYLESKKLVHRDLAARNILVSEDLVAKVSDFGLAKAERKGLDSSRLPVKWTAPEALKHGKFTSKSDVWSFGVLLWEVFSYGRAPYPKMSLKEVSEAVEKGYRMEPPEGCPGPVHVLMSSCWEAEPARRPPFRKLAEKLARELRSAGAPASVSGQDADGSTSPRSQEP

[8] = biological target: Serine/threonine-protein kinase SBK1 (Homo sapiens) (UniProt Q52WX2); assay: Selectivity interaction (KinomeScan (DiscoverX)) EUB0001049a SBK1; details: at 1 µM
[9] = biological target: Tyrosine-protein kinase JAK1 (Homo sapiens, UniProt P23458); assay: Selectivity interaction (KinomeScan (DiscoverX)) EUB0000695a JAK1; details: at 100 nM

Sequence of Tyrosine-protein kinase HCK (Homo sapiens) (P08631 2-526 limits assumed): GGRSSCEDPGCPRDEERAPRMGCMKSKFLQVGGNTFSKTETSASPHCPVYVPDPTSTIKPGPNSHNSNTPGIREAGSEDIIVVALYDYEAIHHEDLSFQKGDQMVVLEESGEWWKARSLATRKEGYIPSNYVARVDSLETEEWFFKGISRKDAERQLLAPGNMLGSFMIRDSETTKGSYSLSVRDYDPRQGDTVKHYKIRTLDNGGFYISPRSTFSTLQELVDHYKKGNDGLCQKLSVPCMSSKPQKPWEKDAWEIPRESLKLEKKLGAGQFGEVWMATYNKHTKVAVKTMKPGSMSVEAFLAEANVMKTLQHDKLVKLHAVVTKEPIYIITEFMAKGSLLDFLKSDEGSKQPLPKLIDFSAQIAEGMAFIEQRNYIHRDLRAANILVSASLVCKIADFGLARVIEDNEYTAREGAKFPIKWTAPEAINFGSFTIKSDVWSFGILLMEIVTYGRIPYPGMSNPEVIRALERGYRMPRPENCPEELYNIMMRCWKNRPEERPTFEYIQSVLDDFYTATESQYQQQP
Sequence of BMP-2-inducible protein kinase (Homo sapiens) (Q9NSY1 whole entry, looked up): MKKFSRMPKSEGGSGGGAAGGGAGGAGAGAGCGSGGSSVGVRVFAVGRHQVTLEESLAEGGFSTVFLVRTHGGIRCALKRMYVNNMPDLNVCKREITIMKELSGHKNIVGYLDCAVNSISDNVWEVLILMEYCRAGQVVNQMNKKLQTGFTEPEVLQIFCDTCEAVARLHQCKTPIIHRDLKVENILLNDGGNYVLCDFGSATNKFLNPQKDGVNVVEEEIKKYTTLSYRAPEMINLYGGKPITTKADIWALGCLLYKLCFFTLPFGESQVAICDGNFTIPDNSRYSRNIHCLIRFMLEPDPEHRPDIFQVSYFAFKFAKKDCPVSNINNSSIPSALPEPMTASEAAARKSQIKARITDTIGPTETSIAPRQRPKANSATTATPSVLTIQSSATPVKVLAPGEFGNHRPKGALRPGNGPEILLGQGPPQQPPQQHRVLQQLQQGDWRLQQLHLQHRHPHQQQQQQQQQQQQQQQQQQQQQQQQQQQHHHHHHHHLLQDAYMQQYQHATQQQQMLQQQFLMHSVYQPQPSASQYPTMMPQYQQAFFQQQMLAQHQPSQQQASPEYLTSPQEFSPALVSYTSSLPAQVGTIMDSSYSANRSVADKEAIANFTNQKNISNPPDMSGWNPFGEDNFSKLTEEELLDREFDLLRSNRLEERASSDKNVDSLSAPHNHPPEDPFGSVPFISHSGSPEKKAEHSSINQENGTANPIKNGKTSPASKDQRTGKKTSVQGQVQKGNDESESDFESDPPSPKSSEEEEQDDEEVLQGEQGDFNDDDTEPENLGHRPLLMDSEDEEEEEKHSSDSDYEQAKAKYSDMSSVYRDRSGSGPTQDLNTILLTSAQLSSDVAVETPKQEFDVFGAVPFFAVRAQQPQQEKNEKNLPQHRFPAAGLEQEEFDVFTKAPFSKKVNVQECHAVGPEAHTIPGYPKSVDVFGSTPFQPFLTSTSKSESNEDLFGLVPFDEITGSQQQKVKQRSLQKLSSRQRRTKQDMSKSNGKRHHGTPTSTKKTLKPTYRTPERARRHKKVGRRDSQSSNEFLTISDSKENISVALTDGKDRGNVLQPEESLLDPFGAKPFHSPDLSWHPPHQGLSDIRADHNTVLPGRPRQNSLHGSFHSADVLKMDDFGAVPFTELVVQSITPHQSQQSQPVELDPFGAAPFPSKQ
Sequence of Protein polybromo-1 (Homo sapiens) (Q86U86 whole entry): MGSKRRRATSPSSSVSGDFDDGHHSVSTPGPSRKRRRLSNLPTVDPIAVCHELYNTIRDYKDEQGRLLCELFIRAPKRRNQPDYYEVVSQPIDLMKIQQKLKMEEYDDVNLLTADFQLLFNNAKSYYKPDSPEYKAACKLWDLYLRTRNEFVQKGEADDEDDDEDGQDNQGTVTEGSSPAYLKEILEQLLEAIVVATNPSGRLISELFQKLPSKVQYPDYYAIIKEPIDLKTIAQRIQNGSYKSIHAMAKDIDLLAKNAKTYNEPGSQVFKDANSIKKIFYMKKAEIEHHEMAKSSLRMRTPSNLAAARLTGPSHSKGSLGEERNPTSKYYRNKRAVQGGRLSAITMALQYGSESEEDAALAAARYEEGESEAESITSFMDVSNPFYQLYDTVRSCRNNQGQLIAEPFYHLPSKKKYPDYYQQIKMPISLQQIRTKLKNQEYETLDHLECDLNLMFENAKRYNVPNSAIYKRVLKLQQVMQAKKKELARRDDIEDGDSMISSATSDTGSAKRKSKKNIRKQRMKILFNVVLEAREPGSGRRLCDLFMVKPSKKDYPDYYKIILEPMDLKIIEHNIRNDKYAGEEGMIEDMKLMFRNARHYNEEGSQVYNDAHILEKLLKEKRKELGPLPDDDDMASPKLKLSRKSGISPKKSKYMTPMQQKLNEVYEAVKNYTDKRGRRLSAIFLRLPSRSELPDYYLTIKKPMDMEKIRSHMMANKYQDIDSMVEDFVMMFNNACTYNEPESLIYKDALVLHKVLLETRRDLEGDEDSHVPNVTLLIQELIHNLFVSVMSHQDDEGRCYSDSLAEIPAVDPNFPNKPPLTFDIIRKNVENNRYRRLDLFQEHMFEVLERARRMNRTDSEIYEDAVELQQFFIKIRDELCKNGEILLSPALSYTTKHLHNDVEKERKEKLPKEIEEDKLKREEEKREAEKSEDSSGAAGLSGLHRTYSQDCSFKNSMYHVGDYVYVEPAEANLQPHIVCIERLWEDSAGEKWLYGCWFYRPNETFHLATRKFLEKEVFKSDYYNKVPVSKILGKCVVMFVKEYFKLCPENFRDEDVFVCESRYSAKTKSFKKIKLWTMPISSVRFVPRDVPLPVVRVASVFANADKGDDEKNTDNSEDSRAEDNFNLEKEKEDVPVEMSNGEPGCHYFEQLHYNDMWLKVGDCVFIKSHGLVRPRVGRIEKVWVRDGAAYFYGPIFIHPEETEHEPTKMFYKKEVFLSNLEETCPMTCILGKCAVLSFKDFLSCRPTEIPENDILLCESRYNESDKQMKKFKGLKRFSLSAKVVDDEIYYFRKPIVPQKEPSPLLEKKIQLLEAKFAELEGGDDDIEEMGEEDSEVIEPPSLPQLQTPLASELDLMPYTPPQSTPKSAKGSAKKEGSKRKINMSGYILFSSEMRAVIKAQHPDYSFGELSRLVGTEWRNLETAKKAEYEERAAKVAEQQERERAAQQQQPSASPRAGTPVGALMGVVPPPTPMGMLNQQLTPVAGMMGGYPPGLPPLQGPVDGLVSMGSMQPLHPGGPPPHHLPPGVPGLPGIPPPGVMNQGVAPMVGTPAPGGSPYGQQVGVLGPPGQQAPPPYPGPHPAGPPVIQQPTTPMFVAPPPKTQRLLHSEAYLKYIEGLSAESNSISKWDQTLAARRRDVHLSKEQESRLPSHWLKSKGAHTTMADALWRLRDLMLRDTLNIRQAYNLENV
Sequence of Vascular endothelial growth factor receptor 2 (P35968 whole entry): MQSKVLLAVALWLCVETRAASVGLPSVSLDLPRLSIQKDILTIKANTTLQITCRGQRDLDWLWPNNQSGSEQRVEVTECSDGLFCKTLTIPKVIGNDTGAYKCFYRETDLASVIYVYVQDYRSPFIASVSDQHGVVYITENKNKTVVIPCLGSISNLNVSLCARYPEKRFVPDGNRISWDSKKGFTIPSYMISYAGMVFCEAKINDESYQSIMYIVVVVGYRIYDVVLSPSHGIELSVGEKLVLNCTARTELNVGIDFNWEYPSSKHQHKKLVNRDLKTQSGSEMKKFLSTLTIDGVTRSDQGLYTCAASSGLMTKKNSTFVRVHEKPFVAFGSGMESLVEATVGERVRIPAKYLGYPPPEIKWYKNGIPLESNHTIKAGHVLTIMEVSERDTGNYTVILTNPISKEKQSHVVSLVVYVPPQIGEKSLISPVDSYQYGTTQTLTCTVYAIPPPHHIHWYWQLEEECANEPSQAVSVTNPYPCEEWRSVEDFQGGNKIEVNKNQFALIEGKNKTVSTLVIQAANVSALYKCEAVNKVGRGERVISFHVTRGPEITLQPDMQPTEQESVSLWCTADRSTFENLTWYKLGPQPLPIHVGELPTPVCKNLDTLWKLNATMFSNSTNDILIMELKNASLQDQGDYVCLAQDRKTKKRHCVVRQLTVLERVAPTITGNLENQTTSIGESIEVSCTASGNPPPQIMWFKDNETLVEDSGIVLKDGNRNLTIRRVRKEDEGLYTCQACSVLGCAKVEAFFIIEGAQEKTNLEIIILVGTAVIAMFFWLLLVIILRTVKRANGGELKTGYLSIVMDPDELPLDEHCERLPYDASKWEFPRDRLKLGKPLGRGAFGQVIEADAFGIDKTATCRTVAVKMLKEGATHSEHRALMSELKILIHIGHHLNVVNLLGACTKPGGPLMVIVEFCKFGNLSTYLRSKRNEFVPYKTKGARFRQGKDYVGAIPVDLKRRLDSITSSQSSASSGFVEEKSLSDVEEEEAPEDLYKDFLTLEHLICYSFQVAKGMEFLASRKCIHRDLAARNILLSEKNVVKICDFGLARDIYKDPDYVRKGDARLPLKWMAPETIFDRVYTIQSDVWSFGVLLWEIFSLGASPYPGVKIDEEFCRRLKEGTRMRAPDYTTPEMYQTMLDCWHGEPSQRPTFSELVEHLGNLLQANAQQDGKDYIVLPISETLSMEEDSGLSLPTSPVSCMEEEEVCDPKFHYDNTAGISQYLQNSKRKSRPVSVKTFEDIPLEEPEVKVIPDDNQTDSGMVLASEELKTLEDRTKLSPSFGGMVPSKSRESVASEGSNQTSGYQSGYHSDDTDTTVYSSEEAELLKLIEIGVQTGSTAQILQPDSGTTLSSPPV

`N#Cc1cccc(-c2c[nH]c3ncnc(N4CCOCC4)c23)c1` gave a % of control [1] of 100%.
Compound `COCC(=O)NC/C=C/c1ccc2ncnc(Nc3ccc(Oc4ccc(C)nc4)c(C)c3)c2c1` [CP-724714] has a % of control [2] of 100%.
Compound `Cc1cc([C@@H](C)Nc2ccccc2C(=O)O)c2nc(N3CCOCC3)cc(=O)n2c1` [AZD-6482] has a % of control [3] of 94%.
For `Cc1cc(CN)cc(C)c1-c1ncn(C)c1-c1cncn1C`, the dTM [4] was -1.53 K.
For `COc1cc(Nc2nc(C)cc(-c3cnn4nc(OC)ccc34)n2)cc(C(F)(F)F)c1`, the % of control [5] was 100%, the % of control [6] was 100% and the % of control [7] was 100%. For the same compound, the % of control [8] was 87%.
In the case of `Cc1cc(F)c(C(=O)Nc2cccc(-c3nncn3C(C)C)n2)cc1-n1cnc(C2CC2)c1`, the % of control [9] is reported as 93%.
